Tests used:
Type in all cases: in vivo
[1] = tested on: ryegrass, Italian (Italian ryegrass, Lolium multiflorum); test: Test A preemergence
Outline: (§1)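 Treatment is preemergence as a directed soil spray after planting, or postemergence at the one- to two-leaf stage, with test chemical in a non-phytotoxic solvent mixture plus surfactant. Plants stay in the greenhouse about 10 d before visual injury scoring on a 0 to 100 scale versus untreated controls.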

[2] = tested on: Kochia (Kochia scoparia); test: Test A preemergence
Outline: as §1

[3] = tested on: pigweed (Amaranthus retroflexus); test: Test A preemergence
[4] = tested on: giant foxtail (Setaria faberii); test: Test A preemergence; conditions: Setaria faberi, pre-emergence, 240 h
Outline: as §1

[5] = tested on: ragweed (common ragweed, Ambrosia elatior); test: Test A preemergence
Outline: as §1

[6] = tested on: barnyardgrass (Echinochloa crus-galli); test: Test A preemergence; conditions: Echinochloa crus-galli, pre-emergence, 240 h
Outline: as §1

[7] = tested on: ryegrass, Italian (Italian ryegrass, Lolium multiflorum); test: Test A postemergence
Outline: as §1

[8] = tested on: wheat (Triticum aestivum); test: Test A postemergence
Outline: as §1

[9] = tested on: blackgrass (Alopecurus myosuroides); test: Test A postemergence
Outline: as §1

[10] = tested on: Kochia (Kochia scoparia); test: Test A postemergence
Outline: as §1

[11] = tested on: Galium (catchweed bedstraw, Galium aparine); test: Test A postemergence
Outline: as §1

[12] = tested on: pigweed (Amaranthus retroflexus); test: Test A postemergence
Outline: as §1

[13] = tested on: giant foxtail (Setaria faberii); test: Test A postemergence
Outline: as §1

[14] = tested on: ragweed (common ragweed, Ambrosia elatior); test: Test A postemergence
Outline: as §1

[15] = tested on: barnyardgrass (Echinochloa crus-galli); test: Test A postemergence
Outline: as §1

[16] = tested on: corn (Zea mays); test: Test A postemergence
Outline: as §1

[17] = tested on: sedge, umbrella (small-flower umbrella sedge, Cyperus difformis); test: Test B flooded paddy test; conditions: Cyperus difformis, 250 g ai/ha, Flood; 0 to 100 scale where 0 is no effect and 100 is complete control; read-out: Sedge, Umbrella plant response rating
Outline: (§2)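 Percent control, visually estimated after 13–15 d in the greenhouse on a 0–100 basis, compares treated pots with untreated ones; compound was put into paddy water 3 cm above the soil when plants had two leaves.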

[18] = tested on: ducksalad (Heteranthera limosa); test: Test B flooded paddy test; conditions: 250 g ai/ha, Flood; 0 to 100 scale where 0 is no effect and 100 is complete control
Outline: as §2

[19] = tested on: rice (Oryra sativa); test: Test B flooded paddy test; conditions: Oryza sativa, 250 g ai/ha, Flood; 0 to 100 scale where 0 is no effect and 100 is complete control; read-out: Rice plant response rating
Outline: as §2

[20] = tested on: barnyardgrass (Echinochloa crus-galli); test: Test B flooded paddy test; conditions: 250 g ai/ha, Flood; 0 to 100 scale where 0 is no effect and 100 is complete control
Outline: as §2

[21] = 500 g ai/ha, preemergence, visual injury rating about 10 d after treatment, 0 to 100 scale (0 no effect, 100 complete control)
[22] = 125 g ai/ha, Postemergence, visual injury after approximately 10 d, 0 to 100 scale where 0 is no effect and 100 is complete control
[23] = 500 g ai/ha, postemergence, visual injury, 0 to 100 scale (0 no effect, 100 complete control), approx. 10 d

## Cc1ccc([C@H]2CN(C)C(=O)[C@@H]2C(=O)Nc2ccccc2[S+](C)[O-])cc1Cl (single isomer, unassigned) [Compound 1016]
[1]; [21]
  Ryegrass, Italian plant response rating: 0
[1]; Lolium multiflorum, pre-emergence, 240 h, 125 g ai/ha, Preemergence, visual injury rating after approximately 10 d, read-out: Ryegrass, Italian plant response rating (0 to 100 scale, 0 is no effect, 100 is complete control)
  pest or weed control at 125 g/ha: 0%
[2]; [21]
  Kochia plant response rating: 0
[2]; Bassia scoparia, pre-emergence, 240 h, 125 g ai/ha, Preemergence, visual injury rating after approximately 10 d, read-out: Kochia plant response rating (0 to 100 scale, 0 is no effect, 100 is complete control)
  pest or weed control at 125 g/ha: 0%
[3]; 125 g ai/ha, Preemergence, visual injury rating after approximately 10 d
  Pigweed plant response rating (0 to 100 scale, 0 is no effect, 100 is complete control): 0
[3]; [21]
  Pigweed plant response rating: 0
[4]; 125 g ai/ha, Preemergence, visual injury rating after approximately 10 d, read-out: Foxtail, Giant plant response rating (0 to 100 scale, 0 is no effect, 100 is complete control)
  pest or weed control at 125 g/ha: 90%
[4]; 500 g ai/ha, preemergence, visual injury rating about 10 d after treatment, 0 to 100 scale (0 no effect, 100 complete control), read-out: Foxtail, Giant plant response rating
  pest or weed control at 500 g/ha: 90%
[5]; [21]
  Ragweed plant response rating: 0
[5]; Ambrosia artemisiifolia, pre-emergence, 240 h, 125 g ai/ha, Preemergence, visual injury rating after approximately 10 d, read-out: Ragweed plant response rating (0 to 100 scale, 0 is no effect, 100 is complete control)
  pest or weed control at 125 g/ha: 0%
[6]; 125 g ai/ha, Preemergence, visual injury rating after approximately 10 d, read-out: Barnyardgrass plant response rating (0 to 100 scale, 0 is no effect, 100 is complete control)
  pest or weed control at 125 g/ha: 90%
[6]; 500 g ai/ha, preemergence, visual injury rating about 10 d after treatment, 0 to 100 scale (0 no effect, 100 complete control), read-out: Barnyardgrass plant response rating
  pest or weed control at 500 g/ha: 90%
[7]; [22]
  Plant response rating, Ryegrass, Italian: 0
[7]; [23]
  Plant response rating, Ryegrass, Italian: 0
[8]; [22]
  Plant response rating, Wheat: 0
[8]; [23]
  Plant response rating, Wheat: 0
[9]; [23]
  Plant response rating, Blackgrass: 0
[9]; Alopecurus myosuroides, post-emergence, 240 h, 125 g ai/ha, Postemergence, visual injury after approximately 10 d, 0 to 100 scale where 0 is no effect and 100 is complete control, read-out: Plant response rating, Blackgrass
  pest or weed control at 125 g/ha: 0%
[10]; [22]
  Plant response rating, Kochia: 0
[10]; [23]
  Plant response rating, Kochia: 0
[11]; [22]
  Plant response rating, Galium: 0
[11]; [23]
  Plant response rating, Galium: 0
[12]; [23]
  Plant response rating, Pigweed: 0
[12]; Amaranthus retroflexus, post-emergence, 240 h, 125 g ai/ha, Postemergence, visual injury after approximately 10 d, 0 to 100 scale where 0 is no effect and 100 is complete control, read-out: Plant response rating, Pigweed
  pest or weed control at 125 g/ha: 0%
[13]; [22]
  Plant response rating, Foxtail, Giant: 30
[13]; Setaria faberi, post-emergence, 240 h, 500 g ai/ha, postemergence, visual injury, 0 to 100 scale (0 no effect, 100 complete control), approx. 10 d, read-out: Plant response rating, Foxtail, Giant
  pest or weed control at 500 g/ha: 80%
[14]; [23]
  Plant response rating, Ragweed: 0
[14]; Ambrosia artemisiifolia, post-emergence, 240 h, 125 g ai/ha, Postemergence, visual injury after approximately 10 d, 0 to 100 scale where 0 is no effect and 100 is complete control, read-out: Plant response rating, Ragweed
  pest or weed control at 125 g/ha: 0%
[15]; [22]
  Plant response rating, Barnyardgrass: 50
[15]; Echinochloa crus-galli, post-emergence, 240 h, 500 g ai/ha, postemergence, visual injury, 0 to 100 scale (0 no effect, 100 complete control), approx. 10 d, read-out: Plant response rating, Barnyardgrass
  pest or weed control at 500 g/ha: 90%
[16]; [22]
  Plant response rating, Corn: 0
[16]; [23]
  Plant response rating, Corn: 0
[17]
  pest or weed control at 250 g/ha: 0%
[18]
  Ducksalad plant response rating: 0
[19]
  pest or weed control at 250 g/ha: 30%
[20]
  Barnyardgrass plant response rating: 0

From US12077503B2, “Substituted cyclic amides and their use as herbicides” (FMC CORPORATION, priority 2015, dated 2024)
